{"source": "paper PMC3132048", "about": "“Treatment of experimental adjuvant arthritis with a novel folate receptor-targeted folic acid-aminopterin conjugate” (Arthritis Research & Therapy, 2011)", "key": {"[1]": {"test_system": "TNFα production in RAW264.7 cells", "test": "LPS-stimulated TNFα production (ELISA)", "type": "cell-based, murine", "procedure": "RAW264.7 cells in 96-well plates (3.5 × 10^4 cells/well) were treated with 10-fold serial dilutions of EC0746 (≤1 μM) in FFRPMI medium without and with 100-fold molar excess of FA. After a 2-hour exposure, the drug-containing media were replaced and the cells were allowed to incubate further for 70 hours (referred in the text as a 70-hour chase). In comparison, the cells were also treated continuously with AMT for 72 hours. Four hours prior to the end of incubation, LPS was added to the treated cells at a final concentration of 100 ng/ml. Then 100 μl culture supernatants were collected for TNFα analysis by ELISA. The cell viability was assessed by adding XTT to the remaining media for an additional 4 hours following the manufacturer's instructions. To evaluation of a cytostatic effect, RAW264.7 cells seeded at 1 × 10^6 cells/well in six-well plates were subjected to 2-hour exposure and a 70-hour chase with 0, 0.1, 10, and 1000 nM EC0746 without and with excess FA. At the end of the incubation (no LPS added), the surviving cells (that is, still viable cells) were recovered and redistributed in equal numbers in fresh medium for an additional 72 hours. The cell proliferation was again assessed by the XTT assay. All results were expressed as the percentage absorbance (minus background) relative to the untreated control cells."}, "[2]": {"test_system": "adjuvant-induced arthritis", "test": "Rat adjuvant-induced arthritis (AIA) model", "type": "in vivo", "settings": "for Inhibition in paw edema (%): paw weight day 24; for Body weight change (%): day 24 relative to day 10", "procedure": "The rats were then inoculated intradermally (at the base of tail) with 0.5 mg heat-killed M. butyricum (BD Diagnostic Systems) in 100 μl light mineral oil (Sigma-Aldrich, St Louis, MO, USA). […] For each study, two or three rats from the same colony were not induced for arthritis and were used as healthy controls.\nUnless noted otherwise, all drug treatments started on day 10 after arthritis induction and lasted for two consecutive weeks with biweekly (BIW, Mondays and Thursdays) or once-weekly (QW, Mondays) dosing regimens.\nEC0746 was given subcutaneously (s.c.) in a dosing range of 25 to 1,000 nmol/kg (QW or BIW); MTX was given s.c. or orally at 250 nmol/kg (BIW) or 1,650 nmol/kg (QW); and etanercept (10 mg/kg) was given s.c. once every 3 days for a 12-day span. The QW MTX dosing regimen was to mimic MTX administration in humans, and this particular dose of 1,650 nmol/kg per week (that is, 0.75 mg/kg per week) was reportedly active as an intraperitoneal agent in the AIA model. To distinguish the anti-inflammatory mechanisms of EC0746 and MTX in vivo, a therapeutically irrelevant folate-containing competitor (EC0923, molecular weight 672) was used in 500-fold molar excess to block the activities of EC0746 and MTX at 250 nmol/kg (BIW).\nFormalin-fixed hind paws were examined by a board-certified veterinary radiologist who had no knowledge of the study groups. Specific criteria were used to establish a numerical grade of severity for each radiographic change: increased soft tissue volume (0 to 4), narrowing or widening of joint spaces (0 to 5), subchondral erosion (0 to 3), periosteal reaction (0 to 4), osteolysis (0 to 4), subluxation (0 to 3), and degenerative joint changes (0 to 3). Scores are limited to the tarsus, and the maximum possible score per foot was 26 [39]. The histopathological analysis was also performed in a blind fashion by an independent contract laboratory (Bolder BioPATH Inc., Boulder, CO, USA). The arthritic ankles were scored on a scale of 0 to 5 for inflammation, bone resorption, pannus formation, and cartilage damage, with a maximal histology score of 20 per foot."}, "rat TG-macs": {"test_system": "rat TG-macs", "test": "Viability of thioglycollate-elicited peritoneal macrophages", "type": "cell-based", "settings": "72-hour incubation; no effect at concentrations as high as stated", "protocol": "Female Lewis rats (175 to 200 g) were purchased from Harlan Sprague Dawley (Indianapolis, IN, USA) and were allowed to acclimate for 1 week. To obtain peritoneal macrophages, rats were dosed intraperitoneally with an aged thioglycollate (TG) medium (20 ml/kg) and euthanized 3 days later. The peritoneal cavity of the animals was lavaged with 60 ml ice-cold phosphate-buffered saline to collect peritoneal exudate. The TG-elicited macrophages in the peritoneal fluids were obtained after a red cell lysing step and a 2-hour adherence in folate-free RPMI 1640 medium (Mediatech, Manassas, VA, USA) containing 1% heat-activated fetal calf serum and antibiotics. The purity of the resulting macrophage population (herein referred to as rat TG-macs) was determined to be ~90% pure based on CD11b/c expression (data not shown). […] Unless otherwise specified, all cells were maintained in the folate-free RPMI 1640 medium containing 10% heat-activated fetal calf serum and antibiotics (FFRPMI) under a 5% CO2 atmosphere.\nUnlike RAW264.7 cells, rat TG-macs display little proliferative activity ex vivo and therefore were used in our studies to represent inflammatory macrophages in a low proliferative state. […] LPS (5 μg/ml) and IFNγ (100 ng/ml) were then added to the treated cells 24 hours prior to the end of incubation to stimulate the release of cytokines/chemokines, which were then detected with a rat cytokine antibody array."}, "[3]": {"biological_target": "T1, FRα (FRα-expressing KB cells) (Homo sapiens, UniProt P15328)", "T1 construct": "both KB cells and CHO-FRβ cells were used as the sources of FR; endogenous in cells; host or cells: KB cells", "T1 sequence (P15328 25-257)": "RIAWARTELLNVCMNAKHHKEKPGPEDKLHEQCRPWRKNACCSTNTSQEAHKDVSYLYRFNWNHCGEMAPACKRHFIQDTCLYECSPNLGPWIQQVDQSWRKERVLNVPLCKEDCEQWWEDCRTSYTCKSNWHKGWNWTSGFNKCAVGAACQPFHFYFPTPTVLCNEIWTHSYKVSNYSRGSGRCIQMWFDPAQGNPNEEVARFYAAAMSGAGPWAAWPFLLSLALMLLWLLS", "test": "Relative affinity assay: displacement of [3H]FA from KB cells", "type": "binding", "settings": "37°C, competitor of [3H]FA, inverse molar ratio to displace 50%", "procedure": "The relative affinities of EC0746, AMT, and MTX were determined according to a previously established method except that both KB cells and CHO-FRβ cells were used as the sources of FR [33]. KB cells are a human cancer cell line known for elevated expression of FRα. CHO-FRβ cells were obtained from Manohar Ratnam, Department of Biochemistry and Cancer Biology, The University of Toledo (Toledo, OH, USA). This cell line was originally generated by stable integration and amplification of a human FRβ cDNA expression construct in CHO-K1 cells."}, "[4]": {"settings": "preliminary study, 500 nmol/kg s.c. biweekly, low starting arthritis"}, "[5]": {"settings": "preliminary study, 500 nmol/kg s.c. biweekly, more established disease"}, "[6]": {"settings": "s.c., 25 nmol/kg biweekly from day 10"}, "[7]": {"settings": "s.c., 100 nmol/kg biweekly from day 10"}, "[8]": {"settings": "s.c., 250 nmol/kg biweekly from day 10"}, "[9]": {"settings": "s.c., 250 nmol/kg biweekly plus 500-fold excess EC0923"}, "[10]": {"settings": "s.c., 250 nmol/kg biweekly, alone"}, "[11]": {"settings": "s.c., 500 nmol/kg biweekly from day 10"}, "[12]": {"settings": "s.c., 1,000 nmol/kg once weekly"}}, "note": "Marks after values point to notes of the source that are not given here.", "data": [{"compound": "Nc1nc(N)c2nc(CNc3ccc(C(=O)N[C@@H](CCC(=O)NNC(=O)OCCSSC[C@H](NC(=O)[C@H](CCC(=O)NC[C@H](O)[C@@H](O)[C@H](O)[C@H](O)CO)NC(=O)[C@H](CCC(=O)O)NC(=O)[C@H](CCC(=O)NC[C@H](O)[C@@H](O)[C@H](O)[C@H](O)CO)NC(=O)[C@H](CCC(=O)O)NC(=O)[C@H](CCC(=O)NC[C@H](O)[C@@H](O)[C@H](O)[C@H](O)CO)NC(=O)CC[C@H](NC(=O)c4ccc(NCc5cnc6nc(N)[nH]c(=O)c6n5)cc4)C(=O)O)C(=O)O)C(=O)O)cc3)cnc2n1", "note": "[EC0746]", "values": [{"measurement": "IC50", "setting": "[1]; 2-hour pulse, 70-hour chase, LPS 100 ng/ml last 4 hours, read-out: Relative 50% inhibitory concentration, TNFα after LPS stimulation", "value": "~1.6", "unit": "nM"}, {"measurement": "TNFα effect competitive by excess FA", "setting": "[1]; 100-fold molar excess FA", "value": 100, "unit": "%"}, {"measurement": "Improvement in paw edema (percentage increase in paw weight)", "setting": "[2]; [4]", "value": "~ 10 fold"}, {"measurement": "Improvement in splenomegaly (percentage increase in spleen weight)", "setting": "[2]; [4]", "value": "threefold"}, {"measurement": "Arthritis score maintained throughout study", "setting": "[2]; preliminary study, 500 nmol/kg s.c. biweekly, mean starting arthritis score ~0 on day 10, score max 16", "value": "~ 1"}, {"measurement": "Maximum reduction in arthritic scores", "setting": "[2]; preliminary study, 500 nmol/kg s.c. biweekly, mean starting arthritis score ~2 (established disease)", "value": "~ 50%"}, {"measurement": "Improvement in paw edema (percentage increase in paw weight)", "setting": "[2]; [5]", "value": "~ 2.5 fold"}, {"measurement": "Improvement in splenomegaly (percentage increase in spleen weight)", "setting": "[2]; [5]", "value": "twofold"}, {"measurement": "Splenomegaly (percentage increase in spleen weight relative to healthy rats)", "setting": "[2]; [6]", "value": "73 ± 8^e %"}, {"measurement": "Inhibition in paw edema (%)", "setting": "[2]; [6]", "value": "0 ± 25^d %"}, {"measurement": "Body weight change (%)", "setting": "[2]; s.c., 25 nmol/kg biweekly", "value": "-17 ± 1", "unit": "%"}, {"measurement": "Splenomegaly (percentage increase in spleen weight relative to healthy rats)", "setting": "[2]; [7]", "value": "52 ± 13^e %"}, {"measurement": "Inhibition in paw edema (%)", "setting": "[2]; [7]", "value": "35 ± 11^d %"}, {"measurement": "Body weight change (%)", "setting": "[2]; s.c., 100 nmol/kg biweekly", "value": "-14 ± 1", "unit": "%"}, {"measurement": "Animals with no lesions (histopathology of ankle)", "setting": "[2]; s.c., 250 nmol/kg biweekly", "value": "three out of five"}, {"measurement": "Decrease in summed histology scores", "setting": "[2]; s.c., 250 nmol/kg biweekly", "value": 94, "unit": "%"}, {"measurement": "Reduction in dorsal to ventral paw thickness", "setting": "[2]; s.c., 250 nmol/kg biweekly", "value": 94, "unit": "%"}, {"measurement": "Splenomegaly (percentage increase in spleen weight relative to healthy rats)", "setting": "[2]; [8]", "value": "25 ± 6^e %"}, {"measurement": "Inhibition in paw edema (%)", "setting": "[2]; [8]", "value": "91 ± 4^d %"}, {"measurement": "Decrease in inflammation score (histology)", "setting": "[2]; [9]", "value": 24, "unit": "%"}, {"measurement": "Decrease in summed histology scores", "setting": "[2]; [9]", "value": "~ 19%"}, {"measurement": "Reduction in dorsal to ventral paw thickness", "setting": "[2]; [9]", "value": 22, "unit": "%"}, {"measurement": "Anti-arthritic activity with co-administered EC0923", "setting": "[2]; s.c., 250 nmol/kg biweekly plus 500-fold molar excess EC0923 (125 μmol/kg), all clinical parameters", "value": "nearly completely blocked"}, {"measurement": "Radiographic analysis of arthritic paws", "setting": "[2]; s.c., 250 nmol/kg biweekly plus EC0923 125 μmol/kg", "value": "significant joint erosions"}, {"measurement": "Anti-arthritic activity (arthritis score, body weight, paw and spleen weights)", "setting": "[2]; [10]", "value": "highly effective"}, {"measurement": "Radiographic analysis of arthritic paws", "setting": "[2]; [10]", "value": "minimal radiographic changes"}, {"measurement": "Body weight change (%)", "setting": "[2]; s.c., 250 nmol/kg biweekly", "value": "-0.5 ± 3", "unit": "%"}, {"measurement": "Improvement in splenomegaly", "setting": "[2]; s.c., 250 nmol/kg per dose biweekly, printed >3-fold to fourfold", "value": "> 3", "unit": "fold"}, {"measurement": "Splenomegaly (percentage increase in spleen weight relative to healthy rats)", "setting": "[2]; [11]", "value": "37 ± 7", "unit": "%"}, {"measurement": "Inhibition in paw edema (%)", "setting": "[2]; [11]", "value": "91 ± 9", "unit": "%"}, {"measurement": "Body weight change (%)", "setting": "[2]; s.c., 500 nmol/kg biweekly", "value": "0.4 ± 4", "unit": "%"}, {"measurement": "Loss of original body weight due to arthritis progression", "setting": "[2]; [12]", "value": "~ 7%"}, {"measurement": "Splenomegaly (percentage increase in spleen weight relative to healthy rats)", "setting": "[2]; [12]", "value": "39 ± 5", "unit": "%"}, {"measurement": "Inhibition in paw edema (%)", "setting": "[2]; s.c., 1,000 nmol/kg once weekly (days 10 and 17)", "value": "72 ± 12", "unit": "%"}, {"measurement": "Body weight change (%)", "setting": "[2]; [12]", "value": "-7 ± 3", "unit": "%"}, {"measurement": "Concentration affecting TG-macs viability", "setting": "rat TG-macs", "value": "> 10", "unit": "µM"}, {"measurement": "Relative affinity value (FA = 1)", "setting": "[3]", "value": 0.50}]}]}
